Reference: PubChem BioAssay (NCI)
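Tested at 5 concentrations; 48 h exposure; 96-well plates; endpoints linearly interpolated, else capped at highest concentration. The concentration for full growth arrest is given as TGI.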

Legend:
Test in all cases: growth of human tumour cells (NCI), 48 h
NCI-H522 lung = system: NCI-H522 lung
SF-295 CNS = system: SF-295 CNS
HOP-18 NSCLC = system: HOP-18 NSCLC
CCRF-CEM leukemia = system: CCRF-CEM leukemia
SK-MEL-5 melanoma = system: SK-MEL-5 melanoma
M14 melanoma = system: M14 melanoma
DMS 273 small cell lung = system: DMS 273 small cell lung
HCT-116 colon = system: HCT-116 colon
OVCAR-4 ovarian = system: OVCAR-4 ovarian
RPMI-8226 leukemia = system: RPMI-8226 leukemia
MOLT-4 leukemia = system: MOLT-4 leukemia
MALME-3M melanoma = system: MALME-3M melanoma
NCI-H460 lung = system: NCI-H460 lung
XF 498 CNS = system: XF 498 CNS
TK-10 renal = system: TK-10 renal
OVCAR-5 ovarian = system: OVCAR-5 ovarian
EKVX NSCLC = system: EKVX NSCLC
OVCAR-3 ovarian = system: OVCAR-3 ovarian
KM12 colon = system: KM12 colon
SNB-75 CNS = system: SNB-75 CNS
SF-268 CNS = system: SF-268 CNS
786-0 renal = system: 786-0 renal
U251 CNS = system: U251 CNS
ACHN renal = system: ACHN renal
UACC-62 melanoma = system: UACC-62 melanoma
SK-MEL-2 melanoma = system: SK-MEL-2 melanoma
DMS 114 small cell lung = system: DMS 114 small cell lung
NCI-H226 lung = system: NCI-H226 lung
HCT-15 colon = system: HCT-15 colon
A498 renal = system: A498 renal
A549 NSCLC = system: A549 NSCLC
K-562 leukemia = system: K-562 leukemia
HOP-62 NSCLC = system: HOP-62 NSCLC
UO-31 renal = system: UO-31 renal
SF-539 CNS = system: SF-539 CNS
M19-MEL melanoma = system: M19-MEL melanoma
SNB-78 CNS = system: SNB-78 CNS
RXF-631 renal = system: RXF-631 renal
LOX IMVI melanoma = system: LOX IMVI melanoma
HT29 colon = system: HT29 colon
SNB-19 CNS = system: SNB-19 CNS
UACC-257 melanoma = system: UACC-257 melanoma
NCI-H23 lung = system: NCI-H23 lung
IGROV1 ovarian = system: IGROV1 ovarian
SW-620 colon = system: SW-620 colon
OVCAR-8 ovarian = system: OVCAR-8 ovarian
LXFL 529 NSCLC = system: LXFL 529 NSCLC
KM20L2 colon = system: KM20L2 colon
HL-60(TB) leukemia = system: HL-60(TB) leukemia
CAKI-1 renal = system: CAKI-1 renal
HOP-92 NSCLC = system: HOP-92 NSCLC
SN12C renal = system: SN12C renal
COLO 205 colon = system: COLO 205 colon
RXF 393 renal = system: RXF 393 renal
SK-MEL-28 melanoma = system: SK-MEL-28 melanoma
SK-OV-3 ovarian = system: SK-OV-3 ovarian

Structure (SMILES): C[C@]12CCC3[C@@H](CC[C@@H]4c5nonc5CC[C@]34C)C1CCC2=O (stereo partly specified)
- TGI (NCI-H522 lung): 50.1 µM
- TGI (SF-295 CNS): 79.3 µM
- TGI (HOP-18 NSCLC): > 100 µM
- TGI (CCRF-CEM leukemia): 61.3 µM
- TGI (SK-MEL-5 melanoma): 31.4 µM
- TGI (M14 melanoma): 37 µM
- TGI (DMS 273 small cell lung): 47.1 µM
- TGI (HCT-116 colon): 31.7 µM
- TGI (OVCAR-4 ovarian): 84 µM
- TGI (RPMI-8226 leukemia): 44 µM
- TGI (MOLT-4 leukemia): 61 µM
- TGI (MALME-3M melanoma): 52.6 µM
- TGI (NCI-H460 lung): 39.7 µM
- TGI (XF 498 CNS): 44.4 µM
- TGI (TK-10 renal): > 100 µM
- TGI (OVCAR-5 ovarian): > 100 µM
- TGI (EKVX NSCLC): 83.1 µM
- TGI (OVCAR-3 ovarian): 40.4 µM
- TGI (KM12 colon): 50.2 µM
- TGI (SNB-75 CNS): 93.6 µM
- TGI (SF-268 CNS): > 100 µM
- TGI (786-0 renal): 64.3 µM
- TGI (U251 CNS): 32.5 µM
- TGI (ACHN renal): 77.7 µM
- TGI (UACC-62 melanoma): 52.3 µM
- TGI (SK-MEL-2 melanoma): 56.5 µM
- TGI (DMS 114 small cell lung): 53.9 µM
- TGI (NCI-H226 lung): 62.7 µM
- TGI (HCT-15 colon): > 100 µM
- TGI (A498 renal): 68.2 µM
- TGI (A549 NSCLC): 92.4 µM
- TGI (K-562 leukemia): > 100 µM
- TGI (HOP-62 NSCLC): > 100 µM
- TGI (UO-31 renal): 39 µM
- TGI (SF-539 CNS): 45.9 µM
- TGI (M19-MEL melanoma): 52.8 µM
- TGI (SNB-78 CNS): 99.7 µM
- TGI (RXF-631 renal): > 100 µM
- TGI (LOX IMVI melanoma): 39.5 µM
- TGI (HT29 colon): 41.1 µM
- TGI (SNB-19 CNS): > 100 µM
- TGI (UACC-257 melanoma): 40.4 µM
- TGI (NCI-H23 lung): 92.5 µM
- TGI (IGROV1 ovarian): > 100 µM
- TGI (SW-620 colon): > 100 µM
- TGI (OVCAR-8 ovarian): > 100 µM
- TGI (LXFL 529 NSCLC): 59.8 µM
- TGI (KM20L2 colon): > 100 µM
- TGI (HL-60(TB) leukemia): 38.9 µM
- TGI (CAKI-1 renal): 95.5 µM
- TGI (HOP-92 NSCLC): 51.5 µM
- TGI (SN12C renal): 47.3 µM
- TGI (COLO 205 colon): 33.3 µM
- TGI (RXF 393 renal): 78.3 µM
- TGI (SK-MEL-28 melanoma): 63.8 µM
- TGI (SK-OV-3 ovarian): > 100 µM
